Consider 16 compounds from US10780092B2, “Fused pyrazine derivatives useful as soluble guanylate cyclase stimulators” (Merck Sharp & Dohme Corp., priority 2016, dated 2020).

SMILES strings stand for the structures.

One experiment has as its target sGC α1/β1 heterodimer (Homo sapiens (Human), UniProt Q02108+Q02153). Put plainly: Cell-based sGC functional assay (CASA assay), cGMP by HTRF. As to conditions: CHO-K1/sGC cells; for Emax: CHO-K1, cGMP production as percentage of maximum of compound A (set to 100%), read-out: % Activation; for EC50: inflection point of cGMP production, 4P fit, read-out: IP. In short, it runs like this:
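CHO-K1 cells stably expressing human sGC α1/β1, with 0.5 mM IBMX, pre-incubated ±1 μM DETA-NO 30 min at 25° C, then compound 1 hr at 37° C (2.5% DMSO). cGMP by HTRF; activation as % of reference activator maximum, 4P fit giving inflection point and maximum […].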

Experiment [1] deals with human recombinant sGC enzyme (Homo sapiens (Human), UniProt Q02108+Q02153). Put plainly: SEC competition binding assay with [3H] Compound B radioligand. As to conditions: displacement of 1.6 nM [3H] Compound B, 24 h at 37° C. The method, boiled down:
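Recombinant human sGC incubated with 1.6 nM [3H] Compound B and test compounds for 24 h at 37° C. Buffer: 50 mM triethanolamine pH 7.4, 3 mM MgCl2, 0.025% BSA, 2 mM DTT, 300 μM DETA/NO, 400 μM GTP, 1% DMSO. Bound ligand separated by gel filtration and counted by scintillation; non-specific binding with 1 μM Compound B; Ki from one-site fit.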

What is called Ki is the dissociation constant of the complex between target and ligand, obtained from inhibition or displacement. In the case of `CCCCc1nc(-c2nc(N)c3c(n2)NC(=O)C3(C)c2cc(O)c(Cl)c(F)c2)cn2ccnc12` (stereo not drawn) [Example 39-B, 4-Amino-2-(8-butylimidazo[1,2-a]pyrazin-6-yl)-5-(4-chloro-3-fluoro-5-hydroxyphenyl)-5-methyl-5,7-dihydro-6H-pyrrolo[2,3-d]pyrimidin-6-one], on sGC α1/β1 heterodimer, the Emax turned out to be 101% and the EC50 came to 873 nM. Also, the Ki in experiment [1] was determined as 0.446 nM.
The corresponding values for `CC1(c2ccc(Cl)c(O)c2)C(=O)Nc2nc(-c3cn4ccnc4c(Cc4ccc(F)cc4)n3)nc(N3CCC(F)(F)CC3)c21` (stereo not drawn) [Example 136-A, 5-(4-Chloro-3-hydroxy-phenyl)-4-(4,4-difluoro-piperidin-1-yl)-2-{8-[(4-fluorophenyl)methyl]-imidazo[1,2-a]pyrazin-6-yl}-5-methyl-5,7-dihydro-6H-pyrrolo[2,3-d]-pyrimidin-6-one] are 66%, 511 nM and 1.57 nM.
The corresponding values for `CC1(c2cccc(O)c2)C(=O)Nc2nc(-c3cn4ccnc4c(Cc4ccc(F)cc4)n3)nc(N)c21` (stereo not drawn) [Example 31-B, 4-Amino-2-{8-[(4-fluorophenyl)methyl]imidazo[1,2-a]pyrazin-6-yl}-5-(3-hydroxyphenyl)-5-methyl-5,7-dihydro-6H-pyrrolo[2,3-d]pyrimidin-6-one] are 93%, 82 nM and 0.274 nM.
The corresponding values for `CC1(c2ccc(Cl)c(O)c2)C(=O)Nc2nc(-c3cn4ccnc4c(CCC(F)(F)C(F)(F)F)n3)nc(N)c21` (stereo not drawn) [Example 65-A, 4-Amino-5-(4-chloro-3-hydroxyphenyl)-5-methyl-2-(8-(3,3,4,4,4-pentafluorobutyl)imidazo[1,2-a]pyrazin-6-yl)-5,7-dihydro-6H-pyrrolo[2,3-d]pyrimidin-6-one] are 85%, 797 nM and 2.26 nM.
In the case of `CC1(c2ccc(O)cc2)C(=O)Nc2nc(-c3cn4ccnc4c(Cc4ccc(F)cc4)n3)nc(N)c21` (stereo not drawn) [Example 43-B, 4-Amino-2-{8-[(4-fluorophenyl)methyl]imidazo[1,2-a]pyrazin-6-yl}-5-(4-hydroxyphenyl)-5-methyl-5,7-dihydro-6H-pyrrolo[2,3-d]pyrimidin-6-one], on sGC α1/β1 heterodimer, the Emax came out at 101% and the EC50 was 142 nM. The inhibition constant (Ki) in experiment [1] turned out to be 0.457 nM.
The corresponding values for `CCCCc1nc(-c2nc(N)c3c(n2)NC(=O)C3(C)c2ccc(F)c(O)c2)cn2ncnc12` (stereo not drawn) [Example 62-B, 4-Amino-2-(8-butyl-[1,2,4]triazolo[1,5-a]pyrazin-6-yl)-5-(4-fluoro-3-hydroxyphenyl)-5-methyl-5,7-dihydro-6H-pyrrolo[2,3-d]pyrimidin-6-one] are 97%, 49 nM and 2.21 nM.
On to `Cc1cccc(Cc2nc(-c3nc(N)c4c(n3)NC(=O)C4(C)c3ccc(O)c(F)c3)cn3ccnc23)c1` (stereo not drawn) [Example 127-B, 4-Amino-5-(3-fluoro-4-hydroxyphenyl)-5-methyl-2-{8-[(3-methylphenyl)-methyl]imidazo[1,2-a]-pyrazin-6-yl}-5,7-dihydro-6H-pyrrolo[2,3-d]-pyrimidin-6-one], for which, on sGC α1/β1 heterodimer, the Emax was 118% and the EC50 came to 9980 nM. Besides, the Ki in experiment [1] amounted to 9.72 nM.
The corresponding values for `CC1CCC(Cc2nc(-c3nc(N)c4c(n3)NC(=O)C4(C)c3ccc(Cl)c(O)c3)cn3ccnc23)CC1` (stereo not drawn) [Example 108-AA, 4-Amino-5-(4-chloro-3-hydroxyphenyl)-5-methyl-2-{8-[(4-methylcyclo-hexyl)methyl]imidazo-[1,2-a]pyrazin-6-yl}-5,7-dihydro-6H-pyrrolo-[2,3-d]pyrimidin-6-one] are 118%, 198 nM and 0.924 nM.
On to `CC1(c2ccc(O)c(Cl)c2)C(=O)Nc2nc(-c3cn4ccnc4c(Cc4ccc(F)cc4)n3)nc(N)c21` (stereo not drawn) [Example 60-B, 4-Amino-5-(3-chloro-4-hydroxyphenyl)-2-{8-[(4-fluorophenyl)methyl]imidazo[1,2-a]pyrazin-6-yl]-5-methyl-5,7-dihydro-6H-pyrrolo[2,3-d]pyrimidin-6-one], for which, at sGC α1/β1 heterodimer, the Emax stood at 138% and the EC50 is 4380 nM. Moreover, in experiment [1], the Ki was found to be 1.92 nM.
The corresponding values for `CC1(c2cc(O)c(Cl)c(F)c2)C(=O)Nc2nc(-c3cn4ccnc4c(CC4CCCCC4)n3)nc(N)c21` (stereo not drawn) [Example 12-B, 4-Amino-5-(4-chloro-3-fluoro-5-hydroxyphenyl)-2-(8-(cyclohexylmethyl)imidazo[1,2-a]pyrazin-6-yl)-5-methyl-5,7-dihydro-6H-pyrrolo[2,3-d]pyrimidin-6-one] are 116%, 98 nM and 0.153 nM.
The corresponding values for `CCCCc1nc(-c2nc(N)c3c(n2)NC(=O)C3(C)c2cc(O)c(Cl)c(F)c2)cn2ncnc12` (stereo not drawn) [Example 42-B, 4-Amino-2-(8-butyl-[1,2,4]triazolo[1,5-a]pyrazin-6-yl)-5-(4-chloro-3-fluoro-5-hydroxyphenyl)-5-methyl-5,7-dihydro-6H-pyrrolo[2,3-d]pyrimidin-6-one] are 170%, 146 nM and 0.496 nM.
For `CC1(c2cccc(O)c2)C(=O)Nc2nc(-c3cn4ccnc4c(Cc4ccccc4)n3)nc(N)c21` (stereo not drawn) [Example 123-B, 4-Amino-2-(8-benzyl-imidaxol[1,2-a]pyrazin-6-yl)-5-(3-hydroxyphenyl)-5-methyl-5,7-dihydro-6H-pyrrolo[2,3-d]pyrimidin-6-one] the same measures were 107%, 768 nM and 0.372 nM.
Regarding `CC1(c2ccc(F)c(O)c2)C(=O)Nc2nc(-c3cn4ccnc4c(Cc4ccc(F)cc4)n3)nc(N)c21` (stereo not drawn) [Example 37-B, 4-Amino-5-(4-fluoro-3-hydroxyphenyl)-2-{8-[(4-fluorophenyl)methyl]imidazo[1,2-a]pyrazin-6-yl}-5-methyl-5,7-dihydro-6H-pyrrolo[2,3-d]pyrimidin-6-one], at sGC α1/β1 heterodimer, the Emax came out at 117% and the EC50 was 69 nM. Besides, the inhibition constant (Ki) in experiment [1] came out at 0.427 nM.
For the compound `CC1(c2ccc(Cl)c(O)c2)C(=O)Nc2nc(-c3cn4c(N)cnc4c(Cc4cccc(F)c4)n3)nc(N)c21` (stereo not drawn) [Example 140-A, 4-Amino-2-(3-amino-8-[(3-fluorophenyl)methyl]imidazo[1,2-a]pyrazin-6-yl)-5-(4-chloro-3-hydroxyphenyl)-5-methyl-5,7-dihydro-6H-pyrrolo[2,3-d]pyrimidin-6-one], at sGC α1/β1 heterodimer, the Emax is 101% and the EC50 was 816 nM. Further, the inhibition constant (Ki) in experiment [1] was found to be 0.827 nM.
As to `CC1(c2ccc(Cl)c(O)c2)C(=O)Nc2nc(-c3cn4ccnc4c(Cc4cccc(F)c4)n3)nc(NCC(O)C(F)(F)F)c21` (stereo not drawn) [Example 131-AB, 5-(4-Chloro-3-hydroxyphenyl)-2-{8-[(3-fluorophenyl)methyl]imidazo[1,2-a]pyrazin-6-yl}-5-methyl-4-[(3,3,3-trifluoro-2-hydroxypropyl)amino]-5,7-dihydro-6H-pyrrolo[2,3-d]pyrimidin-6-one], the “% Activation” value on sGC α1/β1 heterodimer (cGMP production as percentage of maximum of compound A (set to 100%)) came out at 96%. For the same compound, at sGC α1/β1 heterodimer, the EC50 was 292 nM. In experiment [1], the inhibitory constant (Ki) was 0.347 nM.
`CC1(c2ccc(O)c(Cl)c2)C(=O)Nc2nc(-c3cn4ccnc4c(CCC4CCCCC4)n3)nc(N)c21` (stereo not drawn) [Example 77-B, 4-Amino-5-(3-chloro-4-hydroxyphenyl)-2-(8-(2-cyclohexylethyl)imidazo[1,2-a]pyrazin-6-yl)-5-methyl-5,7-dihydro-6H-pyrrolo[2,3-d]pyrimidin-6-one]: at sGC α1/β1 heterodimer, the Emax was found to be 99% and the EC50 amounted to 645 nM. For the same compound, the inhibitory constant (Ki) in experiment [1] was found to be 8.79 nM.
